According to patent US7342028B2, “Medical use for tachykinin antagonists” (Glaxo Group Limited, priority 1991, dated 2008):

What was measured:
[1] = test system: emesis induced by morphine; experiment: morphine-induced emesis, test compound given simultaneously with the emetogen; assay type: in vivo, ferret; details: compound 3 mg/kg i.p. simultaneously with morphine 0.5 mg/kg s.c.
[2] = test system: emesis induced by ipecacuanha; experiment: ipecacuanha-induced emesis, test compound given simultaneously with the emetogen; assay type: in vivo, ferret; details: compound 3 mg/kg i.p. simultaneously with ipecacuanha 2 mg/kg p.o.
[3] = test system: cisplatin-induced emesis; experiment: cisplatin-induced emesis in the ferret; assay type: in vivo; details: for anti-emetic activity: inhibition of cisplatin-induced emesis: cisplatin 200 mg/m^2 i.p., compound 3 mg/kg i.p. at first retch
Procedure: In this model of emesis the onset of retching and vomiting occurs approximately 1 hour after the administration of cisplatin (200 mg/m^2 i.p.). At the first retch in response to cisplatin, the test compound was administered (e.g. i.p., p.o., i.v., s.c., i.c.v.) and its effect on emesis determined by comparison with appropriate controls (e.g. water).

[4] = test system: emesis induced by copper sulphate; experiment: copper sulphate-induced emesis, test compound given simultaneously with the emetogen; assay type: in vivo, ferret; details: compound 3 mg/kg i.p. simultaneously with copper sulphate 40 mg/kg i.p.
[5] = test system: emesis induced by cyclophosphamide; experiment: cyclophosphamide-induced emesis, test compound given simultaneously with the emetogen; assay type: in vivo, ferret; details: compound 3 mg/kg i.p. simultaneously with cyclophosphamide 200 mg/kg i.p.
[6] = biological target: NK1 receptor (Homo sapiens, UniProt P25103); experiment: NK1 receptor antagonist activity (enantiomer comparison); details: relative to the (2S,3S) enantiomer
Sequence of NK1 receptor (P25103 whole entry, species assumed): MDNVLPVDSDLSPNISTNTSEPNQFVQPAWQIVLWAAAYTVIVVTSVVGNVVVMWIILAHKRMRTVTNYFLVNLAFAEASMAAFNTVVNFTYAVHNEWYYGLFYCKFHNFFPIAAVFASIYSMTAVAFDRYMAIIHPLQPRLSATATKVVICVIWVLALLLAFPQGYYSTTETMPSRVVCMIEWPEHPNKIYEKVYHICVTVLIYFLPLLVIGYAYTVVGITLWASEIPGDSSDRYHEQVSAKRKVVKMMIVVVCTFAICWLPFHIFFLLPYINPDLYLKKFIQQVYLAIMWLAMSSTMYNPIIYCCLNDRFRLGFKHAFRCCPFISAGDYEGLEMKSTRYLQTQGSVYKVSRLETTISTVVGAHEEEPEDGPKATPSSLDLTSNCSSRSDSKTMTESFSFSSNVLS

For `COc1ccccc1CN[C@H]1CCCN[C@H]1c1ccccc1` (racemic) [(±) cis-3-(2-methoxybenzylamino)-2-phenyl piperidine], the “anti-emetic activity against morphine” value [1] was “exhibited anti-emetic activity”, the “anti-emetic activity against ipecacuanha” value [2] was “exhibited anti-emetic activity” and the “anti-emetic activity: inhibition of cisplatin-induced emesis” value (“anti-emetic activity: inhibition” below) [3] was “exhibited anti-emetic activity”. The “anti-emetic activity against copper sulphate” value [4] was “exhibited anti-emetic activity” and the “anti-emetic activity against cyclophosphamide” value [5] was “exhibited anti-emetic activity”.
In the case of `COc1ccccc1CN[C@H]1CCCN[C@H]1c1ccccc1` (relative stereo) [(2R,3R) enantiomer, cis-3-(2-methoxybenzylamino)-2-phenyl piperidine], the “fold less active as an NK1 receptor antagonist than the (2S,3S) enantiomer” value [6] was 1000 fold and the “anti-emetic activity: inhibition” value ([3]; 3 mg/kg) was “inactive”.
For `COc1ccccc1CN[C@H]1CCCN[C@H]1c1ccccc1` (relative stereo) [(2S,3S) enantiomer, cis-3-(2-methoxybenzylamino)-2-phenyl piperidine], the “anti-emetic activity: inhibition” value ([3]; 3 mg/kg) was “inhibited”.
In the case of `COc1ccccc1CNC1C2CCN(C2)C1C(c1ccccc1)c1ccccc1` (stereo not drawn) [Example 1, (exo,exo)-2-(Diphenylmethyl)-N-[(2-methoxyphenyl)methyl]-1-azabicyclo[2.2.1]heptan-3-amine], the “inhibition of cisplatin-induced emesis” value ([3]; compound 5 mg/kg i.p.) was “inhibited”.
